The values that follow come from PMC8272121, “Synthesis and Evaluation of Chalcone-Quinoline Based Molecular Hybrids as Potential Anti-Malarial Agents” (Molecules, 2021).

Data set [1] relates to P. falciparum NF54 (drug-sensitive strain). The data set is described as follows: In vitro antiplasmodial assay (parasite lactate dehydrogenase), chloroquine-sensitive NF54 strain. Format: cell-based, Plasmodium falciparum. As to conditions: Plasmodium falciparum; sensitive (NF54) strain of P. falciparum; pLDH assay, 48 h; mean of ≥2 independent experiments; read-out: PfNF54 IC50. Here is the method: All the synthesized molecular hybrids (6–27) were evaluated for in vitro antiplasmodial activity against the drug-sensitive strain (NF54) of P. falciparum and for cytotoxicity against the Chinese Hamster Ovary (CHO) mammalian cell line using emetine as a reference drug. Aqueous solubility was determined at pH 6.5 (Table 2).
In-vitro anti-plasmodium assay. Compounds were tested using parasite lactate dehydrogenase assay as a marker for parasite survival. The respective stock solutions of CQ diphosphate and test compounds were prepared by dissolving 2 mg/mL in distilled water (for CQ) and 100% DMSO for test compounds. The solutions were then stored at −20 °C, with further dilutions prepared on the day of the experiment. The cultures were synchronized in the ring stage as described previously using 15 mL of 5% (w/v) d-sorbitol in water. Synchronous cultures of PfNF54 (CQS) in the late trophozoite stage were prepared to 2% parasitemia and 2% hematocrit. […] Following incubation, 100 μL of MalStat reagent and 15 μL of resuspended culture were combined, followed by addition of 25 μL of nitro blue tetrazolium chloride (NBT). The plates were kept in the dark for about 10 min to fully develop, and absorbance was measured at 620 nm on a microplate reader. Raw data were exported to Microsoft Excel for dose-response analysis.

The test system of data set [2] is Chinese Hamster Ovary (CHO) mammalian cell line. The data set is described as follows: Cytotoxicity MTT assay on CHO cells. Format: cell-based. As to conditions: for IC50: Cricetulus griseus, CHO, Chinese hamster ovarian cell line, MTT, 48 h; for SI (selectivity index): SI = IC50 (CHO)/IC50 (PfNF54). Here is the method: All the synthesized molecular hybrids (6–27) were evaluated for in vitro antiplasmodial activity against the drug-sensitive strain (NF54) of P. falciparum and for cytotoxicity against the Chinese Hamster Ovary (CHO) mammalian cell line using emetine as a reference drug. Aqueous solubility was determined at pH 6.5 (Table 2). Cytotoxicity assay. […] The reference standard, emetine, was prepared to 2 mg/mL in distilled water while stock solutions of test compounds were prepared to 20 mg/mL in 100% DMSO with the highest concentration of solvent to which the cells were exposed having no measurable effect on the cell viability. The initial concentration of the compounds and control was 100 μg/mL, which was serially diluted in complete medium with 10-fold dilutions to give six concentrations, the lowest being 0.001 μg/mL. Plates were incubated for 48 h with 100 μL of drug and 100 μL of cell suspension in each well and developed afterward by adding 25 μL of sterile MTT (Thermo Fisher Scientific) to each well, followed by 4 h of incubation in the dark. The plates were then centrifuged; the medium was aspirated, and 100 μL of DMSO was added to dissolve crystals before reading the absorbance at 540 nm. Data were analyzed, and the sigmoidal dose-response was derived using GraphPad Prism v 4.0 software (La Jolla). All experiments were performed for at least three independent biological repeats, each with technical triplicates.

Data set [3] concerns P. falciparum K1 (multi-drug resistant strain). Nature of the data set: In vitro antiplasmodial activity against multi-drug resistant K1 strain. Conditions: Plasmodium falciparum; multi-drug resistant K1 strain of P. falciparum; read-out: PfK1 IC50. Format: cell-based.
Data set [4] can be described thus: Aqueous solubility, miniaturized shake flask method (HPLC-DAD). The class given is physicochemical. As to conditions: aqueous solution, aqueous buffer, thermodynamic from solid, pH 6.5, shake flask 20 h, 25 °C. Here is the method:
All the synthesized molecular hybrids (6-27) were evaluated for in vitro antiplasmodial activity against the drug-sensitive strain (NF54) of P. falciparum and for cytotoxicity against the Chinese Hamster Ovary (CHO) mammalian cell line using emetine as a reference drug. Aqueous solubility was determined at pH 6.5 (Table 2). Aqueous solubility. Water solubility was analyzed using a miniaturized shake flask method. Ten millimolar stock solutions of each of the compounds were used to prepare calibration standards (10-220 μM) in DMSO. The same 10 mM stock solutions were accurately dispensed in duplicate into 96-well plates, and the DMSO, dried down ([…],90 min, 37 °C). Thereafter, the samples were reconstituted (200 μM) in an aqueous solution and shaken (20 h, 25 °C). The solutions were analyzed by means of HPLC-DAD (Agilent1200 Rapid Resolution HPLC with a diode array detector). Best fit calibration curves were constructed using the calibration standards, which were used to determine the aqueous samples' solubility.

In brackets after ≈: the same amount, converted by molar mass.

In the case of `O=C(/C=C/c1ccccc1Br)c1ccc(S(=O)(=O)NCCCNc2ccnc3cc(Cl)ccc23)cc1` [Compound 8, (E)-4-(3-(2-bromophenyl)acryloyl)-N-(3-((7-chloroquinolin-4-yl)amino)propyl)benzenesulfonamide], the IC50 (usually the concentration at which inhibition is half-maximal) in data set [1] was determined as 100 nM; in data set [2] it was 43200 nM; in data set [3], 2970 nM. Besides, the “SI (selectivity index)” value in data set [2] amounted to 435.

Take `COc1ccc(/C=C/C(=O)c2ccc(S(=O)(=O)NCCCNc3ccnc4cc(Cl)ccc34)cc2)cc1` [Compound 12, (E)-N-(3-((7-chloroquinolin-4-yl)amino)propyl)-4-(3-(4-methoxyphenyl)acryloyl)benzenesulfonamide]: the melting point (usually the temperature of the solid-liquid transition) lay in the range of 221 to 223 °C. Moreover, in data set [1], the IC50 worked out at 110 nM. Besides, in data set [2], half-maximal inhibition (IC50) was put at 43300 nM and the “SI (selectivity index)” value is given as 393.6. For the same compound, the half-maximal inhibitory concentration (IC50) in data set [3] was found to be 590 nM.

`O=C(/C=C/c1ccc(F)cc1)c1ccc(S(=O)(=O)NCCNc2ccnc3cc(Cl)ccc23)cc1` [Compound 24, (E)-N-(2-((7-chloroquinolin-4-yl)amino)ethyl)-4-(3-(4-fluorophenyl)acryloyl)benzenesulfonamide] came in with a melting point of 222 to 224 °C. Further, the solubility (usually how much of the substance goes into solution per volume) at 20 h in data set [4] was below 5 µM. Also, the IC50 in data set [1] came out at 570 nM. Moreover, in data set [2], half-maximal inhibition (IC50) required 14500 nM and the “SI (selectivity index)” value is reported as 25.5.

As to `O=C(/C=C/c1ccc2c(c1)OCO2)c1ccc(S(=O)(=O)NCCCNc2ccnc3cc(Cl)ccc23)cc1` [Compound 26, (E)-4-(3-(benzo[d][1,3]dioxol-5-yl)acryloyl)-N-(3-((7-chloroquinolin-4-yl)amino)propyl)benzenesulfonamide], the melting point was 222 to 224 °C. For the same compound, the concentration in solution in data set [4] (solubility at 20 h) was 200 µM (≈ 110 µg/mL). For the same compound, the IC50 in data set [1] is 690 nM. In data set [2], the IC50 was found to be 34100 nM and the “SI (selectivity index)” value was found to be 49.5.

Compound `COc1cc(/C=C/C(=O)c2ccc(S(=O)(=O)NCCCNc3ccnc4cc(Cl)ccc34)cc2)cc(OC)c1OC` [Compound 16, (E)-N-(3-((7-chloroquinolin-4-yl)amino)propyl)-4-(3-(3,4,5-trimethoxyphenyl)acryloyl)benzenesulfonamide] gave a melting point of 197 to 200 °C. Further, the concentration in solution in data set [4] (solubility at 20 h) came to 15 µM (≈ 8.94 µg/mL). The IC50 in data set [1] is 580 nM. For the same compound, in data set [2], the IC50 was determined as 22600 nM and the “SI (selectivity index)” value stood at 39.0.

Compound `O=C(/C=C/c1ccccc1F)c1ccc(S(=O)(=O)NCCCNc2ccnc3cc(Cl)ccc23)cc1` [Compound 15, (E)-N-(3-((7-chloroquinolin-4-yl)amino)propyl)-4-(3-(2-fluorophenyl)acryloyl)benzenesulfonamide] had a melting point of 223 to 225 °C. The solubility at 20 h in data set [4] is 5 µM (≈ 2.62 µg/mL). In data set [1], the IC50 was determined as 860 nM. Further, in data set [2], 45500 nM corresponded to half-maximal inhibition (IC50) and the “SI (selectivity index)” value is 52.9.

The compound `O=C(/C=C/c1ccccc1Cl)c1ccc(S(=O)(=O)NCCNc2ccnc3cc(Cl)ccc23)cc1` [Compound 25, (E)-4-(3-(2-chlorophenyl)acryloyl)-N-(2-((7-chloroquinolin-4-yl)amino)ethyl)benzenesulfonamide] returned a melting point of 209 to 211 °C. This compound also had a solubility at 20 h in data set [4] of 19 µM (≈ 10 µg/mL). The IC50 in data set [1] is 370 nM. In addition, in data set [2], the IC50 was 35400 nM and the “SI (selectivity index)” value is on record as 95.7.

For the compound `O=C(/C=C/c1ccc(Cl)cc1)c1ccc(S(=O)(=O)NCCCNc2ccnc3cc(Cl)ccc23)cc1` [Compound 11, (E)-4-(3-(4-chlorophenyl)acryloyl)-N-(3-((7-chloroquinolin-4-yl)amino)propyl)benzenesulfonamide], the values for the IC50 in data set [1], in data set [2] and in data set [3] were 100 nM, 41200 nM and 6000 nM, respectively. In data set [2], the “SI (selectivity index)” value is reported as 416.2.
